# Patent US7030273B1, “Compounds with physiological cooling effect” (Qaroma, Inc, priority 2005, dated 2006)
# Legend:
# [1] = test system: cold receptors of the skin and mucous membranes of the human body; experiment: Panel test of physiological cooling ability against WS-23, solutions applied orally; assay type: in vivo; parameters: key: + means the compound has equal or stronger cooling effect than WS-23; settings: 2000 ppm solution applied orally; panel of 5 people
# Procedure: The following testing procedure is aimed at determining physiological cooling ability of testing compounds with regard to WS-23 ([…]). The tests are carried out on a selected panel of 5 people. The present test procedure is done on a statistical basis because sensitivity to cooling compounds will vary not only from compound to compound and from one part of the body to another, but from one individual to another as well. Tests of this nature are commonly used on the testing and quality control of the organoleptic properties, e.g. taste, smell of organic and inorganic food products.
# 1 g of each testing compound is dissolved in 99 g denatured ethanol to form 1% solution. 2 g such solution is then diluted with 8 g deionized water to form 2000 ppm solution. The solutions are then applied orally to determine the cooling effect.
# To test the cooling activity of the compounds in this invention, the compounds prepared in this invention are tested repeatedly by the 5 selected panelists and the results are compared with WS-23.
# tongue = experiment: Toothpicks soaked in compound solution, put on tongue; assay type: in vivo, human; settings: toothpick tips soaked in 5% solution in denatured ethanol, dried
# Excerpt: Toothpick tips were soaked in 5% solution of Compound 3 in this invention in denatured ethanol for long enough to have enough deposition of the compound. The picks were then dried.
# mouth = experiment: Mint candies containing the compound, cooling effect in the mouth; assay type: in vivo, human; settings: 0.02% in icing sugar candies
# Procedure: Icing sugar was mixed with small amount of water at 50° C. to form a paste. 0.02% Compound 5 in this invention was added and stirred. Cooled to room temperature, the mixture hardened and was broken into smaller pieces.
Structure (SMILES),Cooling ability compared to WS-23 [1],cooling sensation on tongue (tongue),melting point [°C],cooling effect in the mouth (mouth)
"CCOCCNC(=O)C(C)(C(C)C)C(C)C [Compound 3, N-(2-ethoxyethyl)-2,3-dimethyl-2-isopropylbutyramide]",+,pronounced cooling sensation,–,–
"COCCCNC(=O)C(C)(C(C)C)C(C)C [Compound 5, N-(3-methoxypropyl)-2,3-dimethyl-2-isopropylbutyramide]",+,–,10,marked cooling effect in the mouth
"CCOCCCNC(=O)C(C)(C(C)C)C(C)C [Compound 6, N-(3-ethoxypropyl)-2,3-dimethyl-2-isopropylbutyramide]",+,–,30,–
"CC(C)OCCCNC(=O)C(C)(C(C)C)C(C)C [Compound 7, N-(3-isopropoxypropyl)-2,3-dimethyl-2-isopropylbutyramide]",+,–,32,–
"CCCCOCCCNC(=O)C(C)(C(C)C)C(C)C [Compound 8, N-(3-butoxypropyl)-2,3-dimethyl-2-isopropylbutyramide]",+,–,40,–
